In patent US4774232A, “Bile-substituting method of treatment for the promotion of fat digestion” (Chinoin Gyogyszer Es Vegyeszeti Termak Ek Gyara Rt, priority 1985, dated 1988):

Tests used:
[1] = tested on: intact rats; experiment: Absorption of 3H-stearic acid with oral DIMEB in intact rats; format: in vivo, CFY female rats; details: for Radioactivity in 10 ml of blood: 11.3 mg 3H-stearic acid + 50 mg DIMEB oral
Experimental: The effect of DIMEB on the absorption of ^3 H-stearic acid was studied in intact rats. The aim of this experiment was to make clear if the absorption of stearic acid was stimulated by DIMEB under the conditions of physiological bile functions. The animals were starved overnight before and during the experiment but received water ad libitum. One group of the experimental animals (CFY female rats with an average body weight of 180 g; 3 animals ) received 13 mg of ^3 H-stearic acid (specific radioactivity: 147.22 kBq/mg), whereas the other group (3 animals) was given 11.3 mg of ^3 H-stearic acid and 50 mg of DIMEB in 2 ml of distilled water. The substances were suspended in the distilled water ultrasonically. Thereafter, the radioactivity level of the blood was measured at various time intervals by using the liquid scintillation method (Table X).

[2] = Water solubility; format: physicochemical
[3] = tested on: bile-deficient rats; experiment: Substitution of the bile in rats: 5-day fat treatment, faecal, plasma and liver lipids; format: in vivo, rats (Etymis rattus var. albino)
Experimental: In an other series of experiments, the total lipid content of the faeces discharged by bile-deficient rats was studied.
The oral treatment was started with the daily administration of 1 ml of swine fat or 1 ml of swine fat together with 150 mg of DIMEB, respectively, in the 72nd hour following the ligature. The treatment was continued for 5 days. The faeces was collected in the first 4 days of the treatment. In the 4th hour following the treatment on the 5th day, the experimental animals were decapitated and their samples were worked up. […] An extraordinarily high amount of lipids were eliminated with the faeces of the animals fed with fat. […] Nearly 100 percent of the introduced fat was absorbed under the effect of DIMEB.
A significant deviation was observed between the groups treated with fat or with fat together with DIMEB, respectively. […] The triglyceride concentration was restored in this group to the control value by the treatment with fat. A significant increase in the triglyceride concentration was induced by the treatment with fat together with DIMEB in comparison to the former group.

[4] = tested on: bile-deficient rats; experiment: Absorption of 3H-stearic acid with oral DIMEB in bile-deficient rats (Example 11); format: in vivo, CFY female rats; details: for Radioactivity in 10 ml of blood: 23.5 mg 3H-stearic acid + 60 mg DIMEB oral
Experimental: The substitution by DIMEB of the bile in bile-deficiency was studied in rats after ligating the bile duct.
After being starved for 24 hours, the animals (CFY female rats with an average body weight of 150 g) were subjected to a bile duct-ligation under nembutal anaesthesia. The absorption was investigated in the 48th hour after starving the animals overnight. The animals were starved in the course of the examination, too, but received water ad libitum. One group (consisting of 4 animals) received 22.2 mg of ^3 H-stearic acid (specific radioactivity: 92.5 kBq/mg), whereas the other group (consisting of 4 animals) was administered 23.5 mg of ^3 H-stearic acid and 60 mg of DIMEB in 2 ml of distilled water. The substances were suspended ultrasonically in the distilled water. Thereafter, the radioactivity level of the blood was measured at various intervals by using the liquid scintillation method (Table XII).

[5] = bile acid-deficient rats, daily 1 ml fat + 150 mg DIMEB, treatment lasting 5 days

COC[C@H]1O[C@@H]2O[C@H]3[C@H](O)[C@@H](OC)[C@@H](O[C@H]4[C@H](O)[C@@H](OC)[C@@H](O[C@H]5[C@H](O)[C@@H](OC)[C@@H](O[C@H]6[C@H](O)[C@@H](OC)[C@@H](O[C@H]7[C@H](O)[C@@H](OC)[C@@H](O[C@H]8[C@H](O)[C@@H](OC)[C@@H](O[C@H]1[C@H](O)[C@H]2OC)O[C@@H]8COC)O[C@@H]7COC)O[C@@H]6COC)O[C@@H]5COC)O[C@@H]4COC)O[C@@H]3COC [DIMEB, heptakis(2,6-di-O-methyl)-β-cyclodextrin]
Radioactivity in 10 ml of blood ([1]; 1 h, animal 4): 1.71 percentage | Radioactivity in 10 ml of blood ([1]; 1 h, animal 5): 1.74 percentage | Radioactivity in 10 ml of blood ([1]; 1 h, animal 6): 2.23 percentage | Radioactivity in 10 ml of blood ([1]; 1 h, mean): 1.89 percentage | Radioactivity in 10 ml of blood ([1]; 2 h, animal 4): 1.84 percentage | Radioactivity in 10 ml of blood ([1]; 2 h, animal 5): 1.88 percentage | Radioactivity in 10 ml of blood ([1]; 2 h, animal 6): 2.00 percentage | Radioactivity in 10 ml of blood ([1]; 2 h, mean): 1.91 percentage | Radioactivity in 10 ml of blood ([1]; 3 h, animal 4): 2.03 percentage | Radioactivity in 10 ml of blood ([1]; 3 h, animal 5): 1.75 percentage | Radioactivity in 10 ml of blood ([1]; 3 h, animal 6): 2.13 percentage | Radioactivity in 10 ml of blood ([1]; 3 h, mean): 1.97 percentage | Radioactivity in 10 ml of blood ([1]; 4 h, animal 4): 2.12 percentage | Radioactivity in 10 ml of blood ([1]; 4 h, animal 5): 1.71 percentage | Radioactivity in 10 ml of blood ([1]; 4 h, animal 6): 1.99 percentage | Radioactivity in 10 ml of blood ([1]; 4 h, mean): 1.94 percentage | Radioactivity in 10 ml of blood ([1]; 5 h, animal 4): 2.10 percentage | Radioactivity in 10 ml of blood ([1]; 5 h, animal 5): 1.76 percentage | Radioactivity in 10 ml of blood ([1]; 5 h, animal 6): 2.00 percentage | Radioactivity in 10 ml of blood ([1]; 5 h, mean): 1.95 percentage | Radioactivity in 10 ml of blood ([1]; 6 h, animal 4): 2.16 percentage | Radioactivity in 10 ml of blood ([1]; 6 h, animal 5): 1.75 percentage | Radioactivity in 10 ml of blood ([1]; 6 h, animal 6): 2.04 percentage | Radioactivity in 10 ml of blood ([1]; 6 h, mean): 1.98 percentage | Radioactivity in 10 ml of blood ([1]; 8 h, animal 4): 2.16 percentage | Radioactivity in 10 ml of blood ([1]; 8 h, animal 5): 1.84 percentage | Radioactivity in 10 ml of blood ([1]; 8 h, animal 6): 1.94 percentage | Radioactivity in 10 ml of blood ([1]; 8 h, mean): 1.98 percentage | Radioactivity in 10 ml of blood ([1]; 10 h, animal 4): 2.20 percentage | Radioactivity in 10 ml of blood ([1]; 10 h, animal 5): 2.02 percentage | Radioactivity in 10 ml of blood ([1]; 10 h, animal 6): 2.21 percentage | Radioactivity in 10 ml of blood ([1]; 10 h, mean): 2.14 percentage | Radioactivity in 10 ml of blood ([1]; 24 h, animal 4): 2.84 percentage | Radioactivity in 10 ml of blood ([1]; 24 h, animal 5): 2.94 percentage | Radioactivity in 10 ml of blood ([1]; 24 h, animal 6): 2.39 percentage | Radioactivity in 10 ml of blood ([1]; 24 h, mean): 2.72 percentage | Radioactivity of the blood, percent of the administered activity ([1]; 24th hour, both groups): 2.7% | Absorption-enhancing effect on 3H-stearic acid ([1]; physiological bile functions, 50 mg DIMEB): did not show any absorption-enhancing effect | Water solubility [2]: very high water solubility | Fat discharge (total lipid content of the faeces) ([3]; bile acid-deficient rats, daily 1 ml fat + 150 mg DIMEB for 5 days, faeces of first 4 days): 6.16 ± 2.37 g/100 g | Liver triglycerides [3, 5]: 9.1 ± 2.2 mg/100 ml | Plasma total lipids [3, 5]: 688.7 ± 95.8 mg/100 ml | Plasma triglycerides [3, 5]: 71.9 ± 19.1 mg/100 ml | Introduced fat absorbed ([3]; bile-deficient rats, daily 1 ml swine fat + 150 mg DIMEB): ~100% | Radioactivity in 10 ml of blood ([4]; 1 h, animal 5): 1.18 percentage | Radioactivity in 10 ml of blood ([4]; 1 h, animal 6): 1.41 percentage | Radioactivity in 10 ml of blood ([4]; 1 h, animal 7): 1.66 percentage | Radioactivity in 10 ml of blood ([4]; 1 h, animal 8): 0.50 percentage | Radioactivity in 10 ml of blood ([4]; 1 h, mean): 1.19 percentage | Radioactivity in 10 ml of blood ([4]; 2 h, animal 5): 1.46 percentage | Radioactivity in 10 ml of blood ([4]; 2 h, animal 6): 1.52 percentage | Radioactivity in 10 ml of blood ([4]; 2 h, animal 7): 1.52 percentage | Radioactivity in 10 ml of blood ([4]; 2 h, animal 8): 0.64 percentage | Radioactivity in 10 ml of blood ([4]; 2 h, mean): 1.28 percentage | Radioactivity in 10 ml of blood ([4]; 3 h, animal 5): 1.29 percentage | Radioactivity in 10 ml of blood ([4]; 3 h, animal 6): 1.63 percentage | Radioactivity in 10 ml of blood ([4]; 3 h, animal 7): 1.37 percentage | Radioactivity in 10 ml of blood ([4]; 3 h, animal 8): 0.61 percentage | Radioactivity in 10 ml of blood ([4]; 3 h, mean): 1.22 percentage | Radioactivity in 10 ml of blood ([4]; 4 h, animal 5): 1.42 percentage | Radioactivity in 10 ml of blood ([4]; 4 h, animal 6): 1.67 percentage | Radioactivity in 10 ml of blood ([4]; 4 h, animal 7): 1.56 percentage | Radioactivity in 10 ml of blood ([4]; 4 h, animal 8): 0.60 percentage | Radioactivity in 10 ml of blood ([4]; 4 h, mean): 1.31 percentage | Radioactivity in 10 ml of blood ([4]; 5 h, animal 5): 1.39 percentage | Radioactivity in 10 ml of blood ([4]; 5 h, animal 6): 1.73 percentage | Radioactivity in 10 ml of blood ([4]; 5 h, animal 7): 1.54 percentage | Radioactivity in 10 ml of blood ([4]; 5 h, animal 8): 0.69 percentage | Radioactivity in 10 ml of blood ([4]; 5 h, mean): 1.34 percentage | Radioactivity in 10 ml of blood ([4]; 6 h, animal 5): 1.41 percentage | Radioactivity in 10 ml of blood ([4]; 6 h, animal 6): 1.92 percentage | Radioactivity in 10 ml of blood ([4]; 6 h, animal 7): 1.76 percentage | Radioactivity in 10 ml of blood ([4]; 6 h, animal 8): 0.73 percentage | Radioactivity in 10 ml of blood ([4]; 6 h, mean): 1.45 percentage | Radioactivity in 10 ml of blood ([4]; 8 h, animal 5): 1.43 percentage | Radioactivity in 10 ml of blood ([4]; 8 h, animal 6): 1.90 percentage | Radioactivity in 10 ml of blood ([4]; 8 h, animal 7): 1.85 percentage | Radioactivity in 10 ml of blood ([4]; 8 h, animal 8): 0.72 percentage | Radioactivity in 10 ml of blood ([4]; 8 h, mean): 1.47 percentage | Radioactivity in 10 ml of blood ([4]; 10 h, animal 5): 1.57 percentage | Radioactivity in 10 ml of blood ([4]; 10 h, animal 6): 1.56 percentage | Radioactivity in 10 ml of blood ([4]; 10 h, animal 7): 1.45 percentage | Radioactivity in 10 ml of blood ([4]; 10 h, animal 8): 0.89 percentage | Radioactivity in 10 ml of blood ([4]; 10 h, mean): 1.37 percentage | Radioactivity in 10 ml of blood ([4]; 24 h, animal 5): 1.50 percentage | Radioactivity in 10 ml of blood ([4]; 24 h, animal 6): 1.94 percentage | Radioactivity in 10 ml of blood ([4]; 24 h, animal 7): 1.59 percentage | Radioactivity in 10 ml of blood ([4]; 24 h, animal 8): 1.95 percentage | Radioactivity in 10 ml of blood ([4]; 24 h, mean): 1.74 percentage | Blood level relative to animals treated with stearic acid alone ([4]; 24th hour): 2 times | Blood radioactivity relative to animals treated with stearic acid alone ([4]; time not given): 4.4 times
